# Experimental data as given in paper PMC11241255 (International Journal of Molecular Sciences, 2024).
# Several values for one entry are separate records, joined by “and”; a condition that tells them apart may be missing. Identical values can stand only once. Like-named read-outs stand apart in the source and are kept apart here.
# What was measured:
# [1] = test system: H2O2-induced ROS production in SH-SY5Y cells; assay: Intracellular ROS measurement (H2DCFDA); assay type: cell-based, Human; settings: 12 h pre-treatment, H2O2 100 µM 2 h, H2O2 alone 156.96 ± 5.07%
# Method: (§1) Human neuroblastoma SH-SY5Y cells (ATCC CRL-2266, Manassas, VA, USA) were maintained in Dulbecco’s modified Eagle’s medium (DMEM, Gibco) supplemented with 10% fetal bovine serum (FBS), 1% kanamycin, and 1% penicillin (Thermo Fisher Scientific, Waltham, MA, USA) at 37 °C with 5% CO2, and a 95% humidified atmosphere in the incubator. The experiments were executed at 80–90% cell confluency.
# The cells (1 × 10^4 cells/well) were seeded in a 96-well sterile plate, after which they were pre-treated with the extract for 12 h. […] The fluorescence intensity (Ex 495 nm, Ems 520 nm) was measured by a microplate reader (Synergy-H1 BioTek, Agilent, USA). The ROS was calculated as a percentage of the untreated control cells (100%) in triplicate measurements.
# SH-SY5Y cells lysate = assay: Malondialdehyde (MDA) in cell lysate (TBA:TCA); assay type: cell-based, Human; settings: 24 h pre-treatment, 6 h H2O2 100 μM
# Method: as §1
# The cells (5 × 10^4 cells/well) were seeded in a 6-well sterile plate and incubated for 18–24 h. After stabilization, cells were pre-treated with the extracts and phytocompounds for 24 h before 6 h incubation with H2O2 (100 μM). The culture media was removed, and the cells were washed with cold PBS (1X). The cells were placed on ice and incubated with pre-chilled RIPA buffer for 10 min. Transfer the lysate in microfuge tubes and centrifuge (Labogene 1730R, BMS, Paju-si, Republic of Korea) for 10 min at 20,000× g, 4 °C. The supernatant was collected and stored at −80 °C.
# MDA levels were measured using TBA: TCA reagent as described previously. In the reaction, MDA reacts with two molecules of thiobarbituric acid (TBA) to give a pink pigment that absorbs at 532 nm. The standard curve of MDA (1–100 μM) was used to calculate lipid peroxidation in the lysate.
# [2] = Ferric reducing antioxidant potential (FRAP) assay; settings: 1 mg/mL
# Method: FRAP assay was used to assess the […] of the extracts and phytocompounds with slight modification in a previously reported method. For the assay, the extract (1 mg/mL) was incubated with 200 μL of FRAP reagent, and the reduction of ferric tripyridyltriazine was monitored at 593 nm (Multimode reader, Synergy-H1 BioTek, Agilent, USA). Ascorbic acid (2 μg/mL) was used as a positive control. FRAP values of the extracts and phytocompounds were calculated from the standard curve of FeSO4 (15–250 μM) and expressed as μM Fe^2+/g.
# AChE = settings: cited from earlier work
# [3] = test system: AChE (bovine erythrocyte); design: method as in doi:10.1021/jf960398b; settings: cited from earlier work
# Aβ1–42 [4] = target: T1, Aβ1–42 (Homo sapiens, UniProt P05067); assay: Anti-Aβ1–42 oligomerization, multimeric detection system (MDS); assay type: biochemical; settings: vs negative control (Buffer + Aβ)
# T1 construct: Aβ1–42 for MDS (GenicBio Inc., Shanghai, China); purchased GenicBio Inc
# Method: The anti-Aβ1–42 oligomerization and fibrilization activity of the extracts/bioactives were measured by Multiple Detection System (MDS) and ThT assay, respectively. Briefly, the extracts and phytocompounds were incubated with Aβ1–42 at RT for different time points (0 h, 2 h, and 4 h). The samples were incubated on an anti-β-amyloid pre-coated plate for 1 h at RT. An HRP-conjugated W0–2 monoclonal antibody was added, and the plate was kept at RT for 30 min. Later, TMB was added, and the plate was incubated for 15 min at RT. The absorbance was read at 450 nm using a microplate reader (Victor3, PerkinElmer, Shelton, CT, USA)
# [5] = test system: H2O2-induced neuroblastoma SH-SY5Y cells; assay: Neuroprotection assay against H2O2-induced oxidative stress (WST-8); assay type: cell-based, Human; settings: Homo sapiens, SH-SY5Y; 30 µg/mL; 12 h pre-treatment, 1 h H2O2 100 µM; read-out: % cell viability, H2O2-induced SH-SY5Y
# Method: as §1
# The neuroprotective effect of extracts and phytocompounds on H2O2-induced oxidative stress in SH-SY5Y by a previously described method. The cells (1 × 10^4 cells/well) were seeded in a 96-well sterile plate. After stabilization, the cells were pre-treated with the extracts and phytocompounds for 24 h. The extracts and phytocompounds were removed and treated with H2O2 (100 μM) for 6 h. A solvent control, H2O2 alone, and extract alone treatments were also included. After incubation, the % cell viability was measured using WST-8 reagent in triplicate experiments.
# [6] = target: T2, Acetylcholinesterase (Electrophorus electricus, Type VI-S) (Electrophorus electricus, UniProt O42275); assay: biochemical; settings: for Type of Inhibition of AChE: Lineweaver–Burk plot, 100 and 200 μg/mL; for Vmax of AChE in presence of inhibitor: no inhibitor 2.975; for IC50: read-out: AChE IC50 (converted)
# T2 construct: purchased Sigma-Aldrich
# Method: The AChE activity was examined by slight modifications [23] in Ellman’s method [76]. The extracts and phytocompounds were incubated for 15 min with AChE and 10 mM ATCC at 37 °C. The reaction was stopped by DTNB (15 mM), and the absorbance was measured at 412 nm (Multi-mode plate reader, Synergy-H1 BioTek, Agilent, USA). […] The percent inhibition was calculated as:Percent Inhibition (I%) = [(Ao − Ac) − (Bi − Bc)]/(Ao − Ac) × 100 where Ao is the absorbance without inhibitor; Ac is the negative control without inhibitor; Bi is the absorbance with inhibitor; and Bc is the negative control with inhibitor. The IC50 values were calculated using GraphPad Prism 10. Lineweaver–Burk plot was used to prepare the inhibition curves (with and without extract/phytocompound) using GraphPad Prism 10. The kinetic parameters were calculated from a non-linear fit (Michaelis–Menten equation) in GraphPad Prism 10.
# Statistical analysis was established by a one-way ANOVA followed by Dunnett’s post hoc test. Data are registered as the mean ± SEM of three sets of experiments. […] The IC50 values were determined using non-linear regression. The Vmax and Km were calculated from a Michaelis–Menten plot drawn using a non-linear plot (GraphPad Prism 10). Lineweaver–Burk plots were drawn using linear regression analysis (GraphPad Prism 10). The Ki values were calculated from the formula IC50 = Ki (1 + [S]/Km).
# Aβ1–42 [7] = target: T1, Aβ1–42; assay: Anti-Aβ1–42 fibrilization, ThT assay; assay type: biochemical; settings: samples 500 μg/mL; 37 °C 24 h
# Method: The anti-Aβ1–42 fibrilization activity of the extracts/bioactives was monitored using a ThT assay. The samples were incubated in the presence/absence of Aβ1–42 at 37 °C for 24 h. The samples were incubated with 100 μM ThT at 37 °C for 15 min. The fluorescence was monitored at Ex 450 nm/Ems 490 nm (Synergy-H1 BioTek, Agilent, Santa Clara, CA, USA). For the control, phenol red (50 μM) was used. The Aβ1–42 aggregation inhibition was calculated as follows:Percent Inhibition (%) = [(1 − Fi/Fc) × 100] where Fi and Fc are the fluorescence intensity with and without the inhibitors, respectively.
# T1 sequence (P05067 672-713): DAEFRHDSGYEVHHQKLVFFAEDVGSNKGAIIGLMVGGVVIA
# T2 sequence (O42275 24-633): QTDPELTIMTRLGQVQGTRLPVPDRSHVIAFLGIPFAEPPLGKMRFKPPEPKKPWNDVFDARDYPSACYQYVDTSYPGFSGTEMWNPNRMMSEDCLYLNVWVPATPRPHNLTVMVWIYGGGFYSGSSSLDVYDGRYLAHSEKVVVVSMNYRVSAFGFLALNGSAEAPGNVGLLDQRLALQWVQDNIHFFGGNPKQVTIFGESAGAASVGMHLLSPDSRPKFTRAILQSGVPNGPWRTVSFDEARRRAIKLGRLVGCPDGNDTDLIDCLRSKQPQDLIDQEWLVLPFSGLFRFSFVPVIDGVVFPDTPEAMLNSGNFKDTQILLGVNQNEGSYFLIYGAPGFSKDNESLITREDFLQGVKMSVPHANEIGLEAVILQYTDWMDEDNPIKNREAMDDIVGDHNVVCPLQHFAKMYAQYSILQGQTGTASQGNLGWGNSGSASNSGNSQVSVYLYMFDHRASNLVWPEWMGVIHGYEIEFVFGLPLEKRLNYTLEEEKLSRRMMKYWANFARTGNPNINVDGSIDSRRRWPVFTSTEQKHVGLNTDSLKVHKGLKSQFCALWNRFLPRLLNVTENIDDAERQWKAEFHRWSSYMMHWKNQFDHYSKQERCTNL
compound,measurement,setting,value
"C=C(C)[C@H]1CC=C(C)C(=O)C1 [carvone, D-carvone]",ROS level (% of untreated cells),[1]; 1 µg/mL,122.82 ± 6.63%
same,ROS level (% of untreated cells),[1]; 10 µg/mL,110.70 ± 4.90%
same,ROS level (% of untreated cells),[1]; 30 µg/mL,107.11 ± 8.34%
same,MDA level,SH-SY5Y cells lysate; 0.1 µg/mL,1.71 µM
same,MDA level,SH-SY5Y cells lysate; 1 and 10 µg/mL,~ 1.33 µM
same,FRAP value,[2],43.25 ± 2.50 µM Fe^2+/g
same,AChE inhibition,AChE; at 1 mg/mL,23.6%
same,AChE IC50,AChE,835.2 µg/mL
same,IC50,AChE,5560 µM
same,Ki,AChE; ref Grundy et al. 51,680 µM
same,AChE IC50,[3],277.9 µg/mL
same,IC50,[3],1850 µM
same,type of AChE inhibition,[3],competitive inhibitor
same,Aβ oligomerization reduction (relative amount of Aβ oligomers),Aβ1–42 [4]; 2 h incubation,statistically significant
same,Aβ oligomerization reduction (relative amount of Aβ oligomers),Aβ1–42 [4]; 4 h incubation,statistically significant
same,viability at 30 µg/mL,[5],70.5 ± 1.67%
same,Ki,[6]; Ki,1800 µM
same,Ki,"[6]; Ki (inhibitor constant), AChE",1800 µM and 1790 µM
same,Type of Inhibition of AChE,[6],competitive inhibition
same,Type of Inhibition of AChE,[6]; listed as Carvone,Competitive
same,Vmax of AChE in presence of inhibitor,[6]; inhibitor 100 μg/mL,2.900 µmol/min/mg
same,Vmax of AChE in presence of inhibitor,[6]; inhibitor 200 μg/mL,3.141 µmol/min/mg
same,IC50,[6]; mean of three experiments ± SEM,1840 µM
same,IC50,[6]; molar equivalent of the μg/mL value,1830 µM
same,Aβ fibrilization inhibition (ThT),Aβ1–42 [7],42.37 ± 0.76%
